In brackets after ≈: the same amount, converted by molar mass. Like-named read-outs stand apart in the source and are kept apart here.
Key:
S. aureus 8810 = test: Broth microdilution antibacterial assay; assay type: cell-based, Staphylococcus aureus
Experimental: (§1) Antibacterial Assay Procedure
(§2) Broth Microdilution Assays
(§3) Media and solutions were autoclaved or sterile filtered prior to use and manipulations were carried out in a laminar flow hood. Antibacterial testing was performed in polypropylene 96 -well flat bottom plates. The minimal inhibitory concentration of blasticidin S ( 1) hydrochloride, P10 (2), and derivatives 15–22 were assessed against Staphylococcus aureus ΔNorA, S. aureus 8810, methicillin-resistant S. aureus (MRSA) ATCC 43300, Enterococcus faecalis ATCC 29212, vancomycin-resistant Enterococcus, Klebsiella pneumoniae ATCC 29665, Pseudomonas aeruginosa, and Acinetobacter baumannii ATCC 17978 using serial dilutions. Doxycycline (Gold Bio) as a positive control and the vehicle as a negative control. Stock solutions of each compound were prepared at 5.12 mg/mL in 50% DMSO/water and serially diluted in 50% DMSO/water to create master plates. From the master plates, 10 μL of each dilution was applied to test plates using a Bravo automated liquid transfer system (Agilent). Bacteria previously grown overnight (37 °C, 120 – 200 RPM), in LB broth were diluted to an OD600 of 0.0 5 in cation-adjusted Mueller-Hinton broth, grown to an OD600 of ~0.5, and diluted to an OD600 of 0.004 in cation-adjusted Mueller-Hinton broth. These diluted cultures were applied to the test plates (190 μL per test well) resulting in final concentrations of the test compounds of 256–2 μg/mL. Growth controls (wells with inoculated media but no vehicle or test compounds) were included to assess any potential toxicity from the vehicle. The plates were incubated at 37 °C for 16–18 h, except for VRE and E. faecalis, which were incubated at 37 °C for 24 h. Inhibition was determined by measuring the optical density at 600 nm (OD600) with a Cytation 3 plate reader (BioTek). The optical density measurements were normalized to the positive and negative controls and the vehicle and growth controls were compared and found to be indistinguishable, indicating no toxicity from the vehicle used. The MIC was the lowest concentration that inhibited >90% of growth. Two biological replicates were performed in duplicate. MIC values are reported […]
(§4) as a range from biological replicates. Inhibition curves were generated using Prism (GraphPad).
(§5) The IC50 values reported in Table 2 are the average of the two biological replicates ± standard […]
(§6) Cytotoxicity Assay Procedure
(§7) Human lung fibroblast cells, MRC -5 (CCL-171), were cultured at 37℃ with 5% CO2 and were plated at 5000 cells/well in a 96 -well plate. Compounds 1, 2, and 15-22 were initially prepared at concentrations of 5.12 mg/mL in a vehicle of 50% DMSO. Dilutions of the compounds (4 – 512 μg/mL) were then prepared in growth medium containing Dulbecco’s modified Eagle’s medium (DMEM) with high glucose, L -glutamine, and sodium pyruvate supplemented with 10% fetal bovine serum (FBS), 1% non -essential amino acids, and 0.1% gentamicin sulfate, and 25mM HEPES. The vehicle (50% DMSO) was also prepared via the sa me dilution series to serve as a control. Growth media was removed from the cells and replaced with the same volume of each compound dilution. Cells were incubated for 24 h , after which CellTiter 96® AQueous One Solution Reagent was added to each well as recommended by the manufacturer’s protocol (Promega CellTiter 96 AQueous One Solution Cell Proliferation Assay) and further incubated for 4 h. After incubation, absorbance was measured at 490 nm on an Infinite M plex multimode microplate reader with i -control Tecan software. Viability was calculated by subtracting media only absorbance values and normalizing to the vehicle control at each concentration. The presented data is one assay performed in triplicate that is representative of multiple trials. Data for the 256 and 512 μg/mL concentrations were removed from analysis due to vehicle toxicity […]
(§8) CC50 concentrations were determined via the ED50 Plus v1.0 software (https://archive.org/details/ed50v10_zip).

[1] = system: methicillin-resistant S. aureus (MRSA) ATCC 43300; test: Broth microdilution antibacterial assay; assay type: cell-based, Staphylococcus aureus
Experimental: as §1, §2, §3, §4, §5, §6, §7, §8

[2] = system: Acinetobacter baumannii ATCC 17978; test: Broth microdilution antibacterial assay; assay type: cell-based
Experimental: as §1, §2, §3, §4, §5, §6, §7, §8

[3] = system: Enterococcus faecalis ATCC 29212; test: Broth microdilution antibacterial assay; assay type: cell-based
Experimental: as §1, §2, §3, §4, §5, §6, §7, §8

[4] = system: Klebsiella pneumoniae ATCC 29665; test: Broth microdilution antibacterial assay; assay type: cell-based
Experimental: as §1, §2, §3, §4, §5, §6, §7, §8

Pseudomonas aeruginosa = test: Broth microdilution antibacterial assay; assay type: cell-based
Experimental: as §1, §2, §3, §4, §5, §6, §7, §8

[5] = system: Staphylococcus aureus ΔNorA; test: Broth microdilution antibacterial assay; assay type: cell-based
Experimental: as §1, §2, §3, §4, §5, §6, §7, §8

[6] = system: vancomycin-resistant Enterococcus (VRE); test: Broth microdilution antibacterial assay; assay type: cell-based
Experimental: as §1, §2, §3, §4, §5, §6, §7, §8

in vitro = assay type: cell-based, human; conditions: human; MRC-5 (lung fibroblast); 24 h; one biological replicate (n = 3); read-out: CC50 for human cells
Experimental: as §4, §5, §6, §7, §8
(§9) Figure S41. The effect of compounds on cell viability. The lines represent non -linear regression curves, and error bars represent means ± […]
(§10) SD (n=3). […]

[7] = system: MRC-5 lung fibroblast cells; test: in vitro; assay type: cell-based, human; conditions: average of SI (CC50/IC50) over the bacteria tested
Experimental: as §4, §5, §6, §7, §8, §9, §10

[8] = design: method as in PMID 5842139; conditions: cited from earlier work
[9] = Acinetobacter baumannii, ATCC17978
[10] = Klebsiella pneumoniae, ATCC29665

CN(CC[C@H](N)CC(=O)N[C@H]1C=C[C@H](n2ccc(N)nc2=O)O[C@@H]1C(=O)O)C(=N)N [Compound 1, blasticidin S]
Selectivity index (CC50/IC50) (S. aureus 8810; MRC-5 CC50 / S. aureus IC50): 0.6
IC50 (S. aureus 8810; Staphylococcus aureus, 8810): 33.2 ± 0.8 µg/mL (≈ 78.6 µM)
MIC (S. aureus 8810; Staphylococcus aureus, 8810): > 256 µg/mL
MIC (S. aureus 8810; Staphylococcus aureus, 8810, read-out: Average Activity against S. aureus): > 256 µg/mL
Selectivity index (CC50/IC50) ([1]; MRC-5 CC50 / MRSA IC50): 0.3
IC50 ([1]; Staphylococcus aureus): 59.7 ± 7.8 µg/mL (≈ 141 µM)
MIC ([1]; Staphylococcus aureus): 256 µg/mL (≈ 606 µM)
MIC ([1]; Staphylococcus aureus, read-out: Average Activity against MRSA): 256 µg/mL (≈ 606 µM)
IC50 [2, 9]: 104 ± 25 µg/mL (≈ 246 µM)
MIC [2, 9]: > 256 µg/mL
Selectivity index (CC50/IC50) ([2]; MRC-5 CC50 / A. baumannii IC50): 0.2
IC50 ([3]; Enterococcus faecalis, ATCC29212): 26.3 ± 13 µg/mL (≈ 62.3 µM)
MIC ([3]; Enterococcus faecalis, ATCC29212, 24 h): 32 to 64 µg/mL (≈ 75.7 to 151 µM)
MIC ([3]; Enterococcus faecalis, ATCC29212, read-out: Average Activity against E. faecalis): 64 µg/mL (≈ 151 µM)
Selectivity index (CC50/IC50) ([3]; MRC-5 CC50 / E. faecalis IC50): 0.8
IC50 [4, 10]: 42.3 ± 3.5 µg/mL (≈ 100 µM)
MIC [4, 10]: 128 µg/mL (≈ 303 µM)
Selectivity index (CC50/IC50) ([4]; MRC-5 CC50 / K. pneumoniae IC50): 0.5
Selectivity index (CC50/IC50) (Pseudomonas aeruginosa; MRC-5 CC50 / P. aeruginosa IC50): 0.3
IC50 (Pseudomonas aeruginosa; Pseudomonas aeruginosa): 61 ± 6 µg/mL (≈ 144 µM)
MIC (Pseudomonas aeruginosa; Pseudomonas aeruginosa): 256 µg/mL (≈ 606 µM)
Selectivity index (CC50/IC50) ([5]; MRC-5 CC50 / S. aureus ΔNorA IC50): 0.1
IC50 ([5]; Staphylococcus aureus): 140 ± 8.7 µg/mL (≈ 331 µM)
MIC ([5]; Staphylococcus aureus): > 256 µg/mL
IC50 ([6]; Enterococcus, VRE): 58 ± 9.4 µg/mL (≈ 137 µM)
MIC ([6]; Enterococcus, VRE, 24 h): 256 µg/mL (≈ 606 µM)
MIC ([6]; Enterococcus, VRE, read-out: Average Activity against VRE): 256 µg/mL (≈ 606 µM)
Selectivity index (CC50/IC50) ([6]; MRC-5 CC50 / VRE IC50): 0.3
CC50 at 24 h (in vitro): 20.1 µg/mL (≈ 47.6 µM)
average selectivity index [7]: 0.4
pKa ([8]; primary amine): 8.0
pKa ([8]; protonated guanidine): > 12.5
